In patent US8309557B2, “Pyrimidin-4-ylpropanedinitrile derivatives, processes for their preparation and their use as herbicides and plant growth regulators” (Bayer Intellectual Property GmbH, priority 2009, dated 2012):

Experiments:
Assay type in all cases: in vivo
Matricaria inodora = test: Herbicidal effect post-emergence, MATIN
Protocol: (§1) Seeds of mono- and dicotyledonous weed plants and crop plants are planted in wood-fiber pots in sandy loam, covered with earth and grown in a greenhouse under good growth conditions. 2 to 3 weeks after sowing, the test plants are treated in the single-leaf stage. The compounds according to the invention, formulated in the form of wettable powders (WP) or as emulsion concentrates (EC), are then sprayed onto the green plant parts as aqueous suspension or emulsion using an application rate of 600 to 800 l of water/ha (converted) with the addition of 0.2% by weight of wetting agent. After the test plants had been in the greenhouse for ca. 3 weeks under optimum growth conditions, the effect of the preparations is scored visually in comparison with untreated controls (herbicidal effect in percent (%): 100% effect=plants have died off, 0% effect=as control plants).

Ipomoea purpurea = test: Herbicidal effect post-emergence, PHBPU
Protocol: as §1

Setaria viridis [1] = test: Herbicidal effect pre-emergence, SETVI; settings: 320 g/hectare, visual grading after 3 weeks vs untreated controls
Excerpt: (§2) Seeds of mono- and dicotyledonous weed plants and crop plants are planted in wood-fiber pots in sandy loam and covered with earth. The compounds according to the invention, formulated in the form of wettable powders (WP) or as emulsion concentrates (EC), are then applied to the surface of the covering earth as aqueous suspension or emulsion at an application rate corresponding to 320 g/hectare at an application rate of 600 to 800 l of water/ha (converted) with the addition of 0.2% wetting agent.
(§3) Following treatment, the pots are placed in a greenhouse and kept under good growth conditions for the test plants. The visual grading of the damage to the test plants is carried out after a test time of 3 weeks in comparison to untreated controls (herbicidal effect in percent (%): 100% effect=plants have died off, 0% effect=as control plants).

Amaranthus retroflexus [2] = test: Herbicidal effect post-emergence, AMARE
Protocol: as §1

Veronica persica [3] = test: Herbicidal effect post-emergence, VERPE
Protocol: as §1

Veronica persica [4] = test: Herbicidal effect pre-emergence, VERPE; settings: 320 g/hectare, visual grading after 3 weeks vs untreated controls
Excerpt: as §2, §3

Setaria viridis [5] = test: Herbicidal effect post-emergence, SETVI
Protocol: as §1

Echinochloa crus-galli = test: Herbicidal effect post-emergence, ECHCG
Protocol: as §1

Viola tricolor [6] = test: Herbicidal effect pre-emergence, VIOTR; settings: 320 g/hectare, visual grading after 3 weeks vs untreated controls
Excerpt: as §2, §3

Amaranthus retroflexus [7] = test: Herbicidal effect pre-emergence, AMARE; settings: 320 g/hectare, visual grading after 3 weeks vs untreated controls
Excerpt: as §2, §3

Stellaria media = test: Herbicidal effect post-emergence, STEME
Protocol: as §1

Viola tricolor [8] = test: Herbicidal effect post-emergence, VIOTR
Protocol: as §1

[9] = tested on: Polygonum (Fallopia) convolvulus; test: Herbicidal effect post-emergence, POLCO
Protocol: as §1

[10] = tested on: Tripleurospermum inodorum; test: Herbicidal effect pre-emergence, MATIN; settings: 320 g/hectare, visual grading after 3 weeks vs untreated controls
Excerpt: as §2, §3

Abutilon theophrasti [11] = test: Herbicidal effect post-emergence, ABUTH
Protocol: as §1

Abutilon theophrasti [12] = test: Herbicidal effect pre-emergence, ABUTH; settings: 320 g/hectare, visual grading after 3 weeks vs untreated controls
Excerpt: as §2, §3

N#CC(C#N)c1nc(-c2ccc(Cl)cc2F)nc(N)c1Cl [compound 110]
100%: Effect in % in respect of stated plant, VERPE (Veronica persica [4]) | Effect in % in respect of stated plant, AMARE (Amaranthus retroflexus [7])
90%: Effect in % in respect of stated plant, MATIN (Matricaria inodora) | Effect in % in respect of stated plant, AMARE (Amaranthus retroflexus [2]) | Effect in % in respect of stated plant, VERPE (Veronica persica [3]) | Effect in % in respect of stated plant, VIOTR (Viola tricolor [6]) | Effect in % in respect of stated plant, STEME (Stellaria media) | Effect in % in respect of stated plant, VIOTR (Viola tricolor [8])
95%: Effect in % in respect of stated plant, POLCO [9]
80%: Effect in % in respect of stated plant, PHBPU (Ipomoea purpurea) | Effect in % in respect of stated plant, SETVI (Setaria viridis [1]) | Effect in % in respect of stated plant, SETVI (Setaria viridis [5]) | Effect in % in respect of stated plant, ECHCG (Echinochloa crus-galli)

CNC.N#CC(C#N)c1nc(-c2ccc(Cl)cc2)nc(N)c1Cl [Compound 310]
100%: Effect in % in respect of stated plant, VERPE (Veronica persica [4]) | Effect in % in respect of stated plant, VIOTR (Viola tricolor [6]) | Effect in % in respect of stated plant, AMARE (Amaranthus retroflexus [7])
87%: Effect in % in respect of stated plant, VERPE (Veronica persica [3])
90%: Effect in % in respect of stated plant, SETVI (Setaria viridis [1]) | Effect in % in respect of stated plant, ECHCG (Echinochloa crus-galli) | Effect in % in respect of stated plant, VIOTR (Viola tricolor [8])
85%: Effect in % in respect of stated plant, MATIN (Matricaria inodora) | Effect in % in respect of stated plant, ABUTH (Abutilon theophrasti [11]) | Effect in % in respect of stated plant, POLCO [9]
80%: Effect in % in respect of stated plant, MATIN [10] | Effect in % in respect of stated plant, PHBPU (Ipomoea purpurea) | Effect in % in respect of stated plant, SETVI (Setaria viridis [5]) | Effect in % in respect of stated plant, STEME (Stellaria media)
95%: Effect in % in respect of stated plant, AMARE (Amaranthus retroflexus [2])

N.N#CC(C#N)c1nc(-c2ccc(Br)cc2)nc(N)c1Cl [Compound 321]
90%: Effect in % in respect of stated plant, VERPE (Veronica persica [3]) | Effect in % in respect of stated plant, ECHCG (Echinochloa crus-galli) | Effect in % in respect of stated plant, ABUTH (Abutilon theophrasti [11]) | Effect in % in respect of stated plant, AMARE (Amaranthus retroflexus [7]) | Effect in % in respect of stated plant, VIOTR (Viola tricolor [8])
100%: Effect in % in respect of stated plant, MATIN (Matricaria inodora) | Effect in % in respect of stated plant, AMARE (Amaranthus retroflexus [2]) | Effect in % in respect of stated plant, VERPE (Veronica persica [4]) | Effect in % in respect of stated plant, VIOTR (Viola tricolor [6]) | Effect in % in respect of stated plant, POLCO [9]
80%: Effect in % in respect of stated plant, SETVI (Setaria viridis [5]) | Effect in % in respect of stated plant, STEME (Stellaria media)

N.N#CC(C#N)c1nc(-c2ccc(Cl)c(C(F)(F)F)c2)nc(N)c1Cl [Compound 335]
100%: Effect in % in respect of stated plant, VERPE (Veronica persica [4])
80%: Effect in % in respect of stated plant, MATIN [10] | Effect in % in respect of stated plant, MATIN (Matricaria inodora) | Effect in % in respect of stated plant, AMARE (Amaranthus retroflexus [2]) | Effect in % in respect of stated plant, VIOTR (Viola tricolor [6])

N.N#CC(C#N)c1nc(-c2ccc(Br)cc2F)nc(N)c1Cl [Compound 392]
90%: Effect in % in respect of stated plant, VERPE (Veronica persica [3]) | Effect in % in respect of stated plant, ABUTH (Abutilon theophrasti [11]) | Effect in % in respect of stated plant, STEME (Stellaria media) | Effect in % in respect of stated plant, VIOTR (Viola tricolor [8]) | Effect in % in respect of stated plant, POLCO [9]
80%: Effect in % in respect of stated plant, SETVI (Setaria viridis [5]) | Effect in % in respect of stated plant, ECHCG (Echinochloa crus-galli) | Effect in % in respect of stated plant, AMARE (Amaranthus retroflexus [7])
100%: Effect in % in respect of stated plant, MATIN (Matricaria inodora) | Effect in % in respect of stated plant, AMARE (Amaranthus retroflexus [2]) | Effect in % in respect of stated plant, VERPE (Veronica persica [4]) | Effect in % in respect of stated plant, VIOTR (Viola tricolor [6])

Cc1ccc(-c2nc(N)c(Cl)c(C(C#N)C#N)n2)cc1.N [Compound 296]
100%: Effect in % in respect of stated plant, VERPE (Veronica persica [4]) | Effect in % in respect of stated plant, AMARE (Amaranthus retroflexus [7])
90%: Effect in % in respect of stated plant, MATIN (Matricaria inodora) | Effect in % in respect of stated plant, AMARE (Amaranthus retroflexus [2]) | Effect in % in respect of stated plant, VERPE (Veronica persica [3])
80%: Effect in % in respect of stated plant, ABUTH (Abutilon theophrasti [12]) | Effect in % in respect of stated plant, ECHCG (Echinochloa crus-galli) | Effect in % in respect of stated plant, ABUTH (Abutilon theophrasti [11])
